US20060002934A1 (priority 2002, published 2006)
“Also recorded” adds a separate entry of the source.

Columns and labels:
Format in all cases: cell-based, human
[1] = tested on: MDA-MB-435S cells expressing del 8 E-cadherin; test: Cell motility by time-lapse laser scanning microscopy, del 8 E-cadherin transfectants; conditions: del 8 E-cadherin cells on collagen I, Tyrphostin AG 1478 6.3 μM; for cell motility enhanced by mutant E-cadherin (effect of inhibitor): 7 h, PD 98059 50 μM, LY 294002 40 μM
Procedure: For time-lapse laser scanning microscopy, cells were cultivated in a microscope-coupled incubation chamber (Zeiss, Jena, Germany) at 37° C. under 5% CO2. Cells were seeded at a density of 2×10^5 cells per 3.5-cm in plates with a glass bottom which were purchased either uncoated or coated with poly-lysine from MatTek Corporation (Ashland, Mass., USA). Uncoated plates were coated for 4 h at 37° C. with collagen I (100 μg/ml, Sigma, Deisenhofen, Germany) or overnight at 4° C. with fibronectin (10 μg/ml, Sigma) or vitronectin (10 μg/ml, Becton Dickinson, Bedford, USA). Kinase inhibitors were used at final concentrations of 50 μM (PD 98059, Sigma, Deisenhofen, Germany), 40 μM (LY 294002, Calbiochem, Schwalbach, Germany), or 6.3 μM (Tyrphostin AG 1478, Sigma). […] Phase contrast images were taken at 3 min intervals with an Axiovert laser scanning microscope LSM 510 (Zeiss) with lens PNF 20×/0.4 PH2 and a helium-neon laser at 543 nm in transmission scanning mode. The percentage of motile cells was measured by drawing the outlines of cells on the screen and counting the cells which moved completely out of the initial area within the recording time of 7 h. Semiautomatic tracing of cell nuclei using the laser scanning microscope software from Zeiss allowed determination of the individual cell speed. The calculation of the cell speed is based on the division of the displacement of an individual cell divided by the total time of recording. Cells were brought in suspension by disruption of cell-cell and cell-matrix interactions and seeded on glass plates precoated with collagen type 1. Cell motility was analyzed by long-term recordings of a duration of 7 h starting 2 h after plating using a laser scanning microscope coupled with a temperature- and CO2-controlled incubation chamber. Motile cells were defined as cells which were able to move out of their initial space within 7 h according to a method described by Marks (J. Cell Bioll. 112 (1991), 149-158). The percentage of motile cells was similar in non-transfected (30%) or wt E-cadherin expressing MDA-MB-435S cells (26%) but elevated upon expression of mutant E-cadherin: […] (52%), […] (58%) and p8 (45%, FIG. 1B). It has been shown for a number of cell lines that the motile behavior of individual cells is variable and therefore it is advisable to investigate a large number of cells to obtain a reliable determination of cellular velocity (Hartmann-Petersen, Cytometry 40 (2000), 260-270). In order to determine the motility of individual cells, the center of the nucleus was semiautomatically traced and the speed of 60 cells per cell line derived from at least three independent experiments was calculated. The range between the minimal and the maximal cell speed and the median of cell speeds were used as motility parameters. […]

[2] = tested on: p44/42 MAP kinase; test: Western blot with phosphorylation-specific antibodies, MAP kinase; conditions: data not shown
Procedure: (§1) For immunoblot analysis, cells were seeded at a density of 6×10^5 cells per 10 cm tissue culture dish and lysed 5 h later with 500 μL-CAM buffer (140 mM NaCl, 4.7 mM KCl, 0.7 mM MgSO4, 1.2 mM CaCl2, 10 mM Hepes pH 7.4, containing 1% (v/v) Triton-X-100 and 1 mM phenylmethylsulfonylfluoride (PMSF) (Cunningham, Proc. Acad. Sci. USA 81 (1984), 5787-5791). Proteins were separated by 7% SDS-polyacrylamide gel electrophoresis followed by transfer to nitrocellulose (Schleicher & Schuell, Dassel, Germany) or PVDF (Bio-Rad Laboratories, München, Germany) membranes. Polyclonal antibodies against total or activated kinases were purchased from New England Biolabs (Frankfurt, Germany): Akt antibody (#9272), detecting total Akt kinase levels, phospho-Akt antibody (Ser473, #9270), detecting phosphorylated Ser 473 in Akt1, Akt2 and Akt3, MAP kinase antibody (# 9102), detecting total MAP kinase, phospho-p44/42 MAP kinase (#9101) detecting activated MAP kinase phosphorylated at Thr 202/[…]. Monoclonal antibody against p53 was purchased from Oncogene Research Products (Ab-6, #OP43). Polyclonal antibodies against total or activated p38 MAP kinases were purchased from New England Biolabs. Phospho-p38 MAP kinase polyclonal antibody (#9211) detects phosphorylated threonine 180 and tyrosine 182 p38 MAP kinase (#9212). […]

[3] = tested on: Akt/PKB; test: Western blot with phosphorylation-specific antibodies, Akt/PKB; conditions: data not shown
Procedure: as §1

[4] = tested on: wt-EcadEGFP expressing MDA-MB-435S cells; test: Time-lapse imaging of motility and E-cadherin localization, wt-EcadEGFP transfectants; conditions: for cell motility (range of cell speeds) / cell paths (range): wt-EcadEGFP cells, 10 cells, 4 h
Procedure: (§2) For time-lapse laser scanning microscopy, cells were cultivated overnight in a microscope-coupled incubation chamber (Zeiss, Jena, Germany) at 37 °C under 5% CO2. Cells were seeded at a density of 1×10^5 cells per 3.5-cm in collagen I-coated plates with a glass bottom which were purchased from MatTek Corporation (Ashland, Mass., USA). Uncoated plates were coated for 4 h at 37° C. with collagen I (100 μg/ml). EGFR kinase inhibitor Tyrphostin AG 1478 (Sigma, Deisenhofen, Germany) was used at a final concentration of 6.3 μM. […] Phase contrast images were taken at 2-3 min intervals with an Axiovert laser scanning microscope LSM 510 (Zeiss) with lens PNF 63× (oil) and an argon laser at 488 nm with a transmission filter of 515 nm.
(§3) To investigate the temporal localization of mutant E-cadherin during cell migration, EcadEGFP transfected cells were cultivated in an incubation chamber coupled with a Zeiss Axiovert 100 microscope. Cells transfected with the vector pEGFP-N2 Vektor or the different EcadEGFP constructs (wt-EcadEGFP and p8-EcadEGFP), were seeded on collagen I coated dishes with glas bottom.

[5] = tested on: p8-EcadEGFP expressing MDA-MB-435S cells; test: Time-lapse imaging of motility and E-cadherin localization, p8-EcadEGFP transfectants
Procedure: as §2, §3

[6] = tested on: MDA-MB-435S cells expressing wt E-cadherin; test: Cell motility by time-lapse laser scanning microscopy, wt E-cadherin transfectants
Procedure: For time-lapse laser scanning microscopy, cells were cultivated in a microscope-coupled incubation chamber (Zeiss, Jena, Germany) at 37° C. under 5% CO2. Cells were seeded at a density of 2×10^5 cells per 3.5-cm in plates with a glass bottom which were purchased either uncoated or coated with poly-lysine from MatTek Corporation (Ashland, Mass., USA). Uncoated plates were coated for 4 h at 37° C. with collagen I (100 μg/ml, Sigma, Deisenhofen, Germany) or overnight at 4° C. with fibronectin (10 μg/ml, Sigma) or vitronectin (10 μg/ml, Becton Dickinson, Bedford, USA). Kinase inhibitors were used at final concentrations of 50 μM (PD 98059, Sigma, Deisenhofen, Germany), 40 μM (LY 294002, Calbiochem, Schwalbach, Germany), or 6.3 μM (Tyrphostin AG 1478, Sigma).
Phase contrast images were taken at 3 min intervals with an Axiovert laser scanning microscope LSM 510 (Zeiss) with lens PNF 20×/0.4 PH2 and a helium-neon laser at 543 nm in transmission scanning mode. The percentage of motile cells was measured by drawing the outlines of cells on the screen and counting the cells which moved completely out of the initial area within the recording time of 7 h. […]
Cells were brought in suspension by disruption of cell-cell and cell-matrix interactions and seeded on glass plates precoated with collagen type 1. Cell motility was analyzed by long-term recordings of a duration of 7 h starting 2 h after plating using a laser scanning microscope coupled with a temperature- and CO2-controlled incubation chamber. […]
It has been shown for a number of cell lines that the motile behavior of individual cells is variable and therefore it is advisable to investigate a large number of cells to obtain a reliable determination of cellular velocity (Hartmann-Petersen, Cytometry 40 (2000), 260-270). In order to determine the motility of individual cells, the center of the nucleus was semiautomatically traced and the speed of 60 cells per cell line derived from at least three independent experiments was calculated. […]

[7] = collagen I, Tyrphostin AG1478 6,3 μM
[8] = p8-EcadEGFP cells, collagen I, Tyrphostin AG1478 6,3 μM, 10 cells, 4 h
[9] = serum starved overnight, EGF 100 ng/ml

Compound	cell motility enhanced by mutant E-cadherin (effect of inhibitor) [1]	EGF-induced activation of MAP kinase (phosphorylation) [2]	median and range of cell speeds ([1]; traced 7 h)	percentage of motile cells ([1]; traced 7 h)	EGF-induced activation of Akt/PKB [3]	localization of wt-EcadEGFP ([4]; Tyrphostin AG1478 6,3 μM)	cell motility (range of cell speeds) [4, 7]	cell paths (range) [4, 7]	localization of p8-EcadEGFP ([5]; Tyrphostin AG1478 6,3 μM)	cell motility (range of cell speeds) [5, 8]	cell paths (range) [5, 8]	percentage of motile cells ([6]; wt E-cadherin cells on collagen I, 7 h, EGF 100 ng/ml)	cellular motility ([6]; wt E-cadherin cells, EGF treatment)	cell morphology ([6]; wt or del 8 E-cadherin cells on collagen I, 2 h after plating, EGF 100 ng/ml (FIG. 5C))	cell motility (range of cell speeds) [4, 9]	cell paths (range) [4, 9]	effect on the motility of p8-EcadEGFP transfected cells ([5]; EGF 100 ng/ml, p=0,364 Kruskal Wallis Test)	cell paths (range) ([5]; p8-EcadEGFP cells, serum starved overnight, EGF 100 ng/ml, 10 cells, 4 h)	localization of p8-EcadEGFP ([5]; serum starved, EGF 100 ng/ml)
COc1cccc(-c2cc(=O)c3ccccc3o2)c1N [PD 98059]	less effective; also recorded: no inhibitory effect	effectively blocked	–	–	–	–	–	–	–	–	–	–	–	–	–	–	–	–	–
COc1cc2ncnc(Nc3cccc(Cl)c3)c2cc1OC [Tyrphostin AG 1478]	sensitive	completely blocked	decreased to the level of wt E-cadherin expressing cells	decreased to the level of wt E-cadherin expressing cells	completely blocked	not significantly changed; also recorded: no influence	1,3-8,8 μm/h	15,1-35,2 μm	also localized perinuclear and at cell cell adhesion sites; also recorded: localized at cell cell contacts and perinuclear	5,7-20 μm/h	22,8-80,3 μm	–	–	–	–	–	–	–	–
epidermal growth factor [EGF]	–	–	–	–	–	–	–	–	–	–	–	increased to the level of del 8 E-cadherin expressing cells	enhanced cellular motility	developed filopodia and lost cell to cell contacts	3,8-15,6 μm/h	15,1-62,4 μm	only minor effects	19,7-97,2 μm	detectable at the cell edges and in lamellipodiae and at cell cell contact sites; also recorded: no influence
